This note sets out measurements from article PMC6549035, “CUMYL-4CN-BINACA Is an Efficacious and Potent Pro-Convulsant Synthetic Cannabinoid Receptor Agonist” (Frontiers in Pharmacology, 2019).

Assay [1] addresses T1, human CB1 receptor (hCB1) (Homo sapiens, UniProt P21554).
T1 construct: gene CNR1
The experiment in a line: [3H]-CP […] competition radioligand binding on HEK293 membranes.

For assay [2], the target named is T2, human CB2 receptor (hCB2) (Homo sapiens, UniProt P34972).
T2 construct: gene CNR2; 3-HA tagged CB2 receptor
T2 sequence (P34972 whole entry): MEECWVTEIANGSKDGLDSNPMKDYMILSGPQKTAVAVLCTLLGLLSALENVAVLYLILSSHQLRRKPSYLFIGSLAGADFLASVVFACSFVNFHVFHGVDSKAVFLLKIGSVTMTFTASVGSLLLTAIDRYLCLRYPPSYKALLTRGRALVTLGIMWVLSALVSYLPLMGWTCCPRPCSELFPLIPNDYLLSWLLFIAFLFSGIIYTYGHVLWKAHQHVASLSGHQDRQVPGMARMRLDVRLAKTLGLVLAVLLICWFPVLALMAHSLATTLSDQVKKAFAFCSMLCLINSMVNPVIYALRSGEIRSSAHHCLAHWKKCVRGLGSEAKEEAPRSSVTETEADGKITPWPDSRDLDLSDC
The description is as above.

T1 sequence (P21554 whole entry): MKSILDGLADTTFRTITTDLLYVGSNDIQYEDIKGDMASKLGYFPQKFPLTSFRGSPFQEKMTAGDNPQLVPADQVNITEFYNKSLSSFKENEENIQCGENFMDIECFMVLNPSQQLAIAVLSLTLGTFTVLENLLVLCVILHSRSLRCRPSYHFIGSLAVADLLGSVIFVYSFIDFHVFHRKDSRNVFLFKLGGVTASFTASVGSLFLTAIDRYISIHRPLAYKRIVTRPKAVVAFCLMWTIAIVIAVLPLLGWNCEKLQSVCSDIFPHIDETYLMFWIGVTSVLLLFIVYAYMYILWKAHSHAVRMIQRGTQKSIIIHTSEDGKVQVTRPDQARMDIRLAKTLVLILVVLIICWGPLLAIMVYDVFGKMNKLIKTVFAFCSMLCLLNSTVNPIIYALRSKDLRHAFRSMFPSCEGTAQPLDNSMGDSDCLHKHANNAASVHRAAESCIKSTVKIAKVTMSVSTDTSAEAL

Turning to `CC(C)(NC(=O)c1nn(CCCCC#N)c2ccccc12)c1ccccc1` [compound 1, 1-(4-cyanobutyl)-N-(2-phenylpropan-2-yl)indazole-3-carboxamide], the Ki in assay [1] was determined as 2.6 nM; in assay [2], 14.7 nM.

A word on the Ki: it is a measure of affinity in units of concentration, obtained from inhibition or displacement. Lower therefore signals a stronger hold on the target.
